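Growth conditions: 96-well plates. Treatment: test compound, 48 hours, 5 concentrations. Analysis: linear interpolation between bracketing concentrations; unreached endpoints set to highest concentration. TGI: total growth inhibition.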
Legend:
Assay in all cases: growth of human tumour cells (NCI), 48 h
[1] = tested on: CCRF-CEM leukemia
[2] = tested on: K-562 leukemia
[3] = tested on: KM12 colon
[4] = tested on: MOLT-4 leukemia
[5] = tested on: OVCAR-3 ovarian
[6] = tested on: OVCAR-8 ovarian
[7] = tested on: RPMI-8226 leukemia
[8] = tested on: RXF 393 renal
[9] = tested on: SF-295 CNS
[10] = tested on: SW-620 colon
[11] = tested on: UACC-62 melanoma
[12] = tested on: HOP-92 NSCLC
[13] = tested on: CAKI-1 renal
[14] = tested on: DU-145 prostate

SMILES	TGI [1] [µM]	TGI [2] [µM]	TGI [3] [µM]	TGI [4] [µM]	TGI [5] [µM]	TGI [6] [µM]	TGI [7] [µM]	TGI [8] [µM]	TGI [9] [µM]	TGI [10] [µM]	TGI [11] [µM]	TGI [12] [µM]	TGI [13] [µM]	TGI [14] [µM]
CCn1cnc2c(=S)nc(N)[nH]c21	> 100	> 100	> 100	> 100	> 100	> 100	> 100	> 100	> 100	> 100	> 100			
COc1cc(-c2cccs2)sc1-c1cccs1	> 100	51.5	> 100	> 100	> 100	> 100	> 100	54.1	> 100	> 100	> 100	78.9		
C/C(CN1C(=O)c2ccccc2C1=O)=N\NS(=O)(=O)c1ccc(Cl)cc1	> 100	> 100	> 100	> 100	> 100	> 100	> 100		> 100	> 100	> 100		> 100	
COCCOCOC(CCCCO)c1cc(C)c(O[Si](C)(C)C(C)(C)C)c(C)c1 (centres undefined)	18.1	16.3	18.6	13.2	19.2	18.7	11.6	10.5	16.3	21.1	25.4			
O=S(=O)(O)c1cc(N=Nc2c(O)ccc3ccccc23)cc2c(S(=O)(=O)O)cccc12	> 100	> 100	> 100	> 100	> 100	> 100	> 100	> 100	> 100	> 100	> 100	> 100	> 100	
N#C/C(N)=C(\C#N)NC=NCCO	> 100	> 100	> 100	> 100	> 100	> 100	> 100		> 100	> 100	> 100		> 100	> 100
CCNC(=O)c1ccc(C)c(N=NN(C)C)c1			> 100		> 100	> 100			> 100	> 100	> 100	> 100	> 100	
Cc1cc(OC(=O)Nc2cccc3ccccc23)c(C(C)C)cc1C(=S)Nc1ccccc1	27.5	43.2	36.4	52.4	33.5	28.8	75.8		36.8	43.3	26.5		54.7	82
C/C(=N\NC(N)=S)c1ccc2c(c1)Sc1ccccc1O2	> 100	> 100	> 100	> 100	4.52	7.16	16.4		> 100	> 100	12.3	28	4.37	> 100
CCOC(=O)CCCSCCCC(=O)CCCSCCCC(=O)OCC	> 100	> 100	> 100	> 100	> 100	> 100			> 100	> 100	> 100	> 100		> 100
COc1ccc(C2Oc3cc(OC)c(OC)cc3C2CCl)cc1OC (centres undefined)	> 100	> 100	> 100	> 100	> 100	> 100	> 100			> 100	79.5	> 100	> 100	
O=C1/C(=C/c2ccco2)NC(=S)N1CN1CCCCC1	> 100	> 100	> 100	> 100	> 100	> 100	> 100		> 100	> 100	> 100	> 100		> 100
CSC(=O)c1sc(SC)[n+](-c2ccccc2)c1O	38.1	> 100		41.4	26.2	59.7	> 100	28	32	42.5	29.7			29.5
Cc1[nH]c(=O)nc2sc(=NC3CCCCC3)n(C3CCCCC3)c(=O)c12	> 100	> 100	> 100	> 100	> 100	> 100	> 100		> 100	> 100	> 100	> 100	> 100	> 100
CCOC(=O)c1nnn(CCCCO)c1C(=O)OCC	> 100		> 100	> 100		> 100		> 100	> 100	> 100	> 100	> 100	> 100	> 100
COc1ccc(S(=O)(=O)n2c3c(c4ccccc42)[C@@H]2[C@@H](CCCN2C(=O)CS(=O)c2ccc(C)cc2)[C@H](Cl)C3)cc1 (some centres undefined)	> 100	> 100	> 100	> 100	> 100	> 100		> 100	> 100	> 100	> 100	> 100	> 100	> 100
COC(=O)c1ccc(Cc2cc(Cc3ccc(C(=O)OC)cc3)cc(Cc3ccc(C(=O)OC)cc3)c2)cc1		> 25	> 25	> 25	> 25	> 25	> 25		> 25	> 25	> 25	> 25		> 25
CNC(=O)NCCCC(NC(C)=O)C(=O)NCc1ccccc1 (centres undefined)	> 100	> 100	> 100	> 100	> 100	> 100	> 100	> 100	> 100	> 100	> 100	> 100	> 100	

From PubChem BioAssay (NCI)
